Experimental data taken from paper PMC5129256 (International Journal of Environmental Research and Public …, 2016).
Where two headings read alike, the source gives them in different places.

What was measured:
LMH cells [1] = details: for IC50 (%) / Viability of LMH Cells (%) ± SD: MTT; for IC50 (%): from dose-response curves
in vitro = details: chicken, Viability of LMH Cells (%) ± SD, MTT
[2] = tested on: human colon adenocarcinoma cell line Caco-2; set-up: method as in ref 39 = [39]; 39. Olejnik A. Schmidt M. Wojnarowska K. Grajek W. The influence of toxic digestive metabolites on the proliferation and DNA damage of epithelial intestinal cells in vitro Food Sci. Technol. Qual. 200; details: Caco-2, concentrations as low as 10^-6 M; cited from earlier work
laboratory mice = details: mouse, in vivo; cited from earlier work
LMH cells [3] = details: PrestoBlue; for Viability of LMH Cells (%) ±S.E.M.: 24 h
workers = tested on: workers; set-up: method as in ref 23 = [23]; 23. The MAK Collection for Occupational Health and Safety, Trimethylamine (MAK Value Documentation, 2004), Wiley Online Library Available online: http://onlinelibrary.wiley.com/doi/10.1002/3527600418.; details: cited from earlier work

In the case of `c1ccc2[nH]ccc2c1` [Indole], the “cytotoxicity (in words)” value (LMH cells [1]) is reported as “not cytotoxic”, the “IC50 (%)” value (LMH cells [1]; 72 h exposure) is reported as 0.06% and the cytotoxicity (LMH cells [1]; chicken) is reported as 39.7%. For the same compound, the viability (in vitro; 0.0004%, 24 h) was 88.6 ± 0.6%, the viability (in vitro; 0.0004%, 72 h) was 90.7 ± 1.3% and the viability (in vitro; 0.0008%, 24 h) was 95 ± 0.2%. The viability (in vitro; 0.0008%, 72 h) was 94.3 ± 2.4%, the viability (in vitro; 0.0016%, 24 h) was 97.4 ± 0.2% and the viability (in vitro; 0.0016%, 72 h) was 94.8 ± 2.1%. The viability (in vitro; 0.0063%, 24 h) was 103 ± 0.4%, the viability (in vitro; 0.0063%, 72 h) was 109 ± 2.5% and the viability (in vitro; 0.0125%, 24 h) was 95.5 ± 0.8%. For the same compound, the viability (in vitro; 0.0125%, 72 h) was 103 ± 1.2%, the viability (in vitro; 0.025%, 24 h) was 102.4 ± 0.2% and the viability (in vitro; 0.025%, 72 h) was 73.5 ± 2%. For the same compound, the viability (in vitro; 0.05%, 24 h) was 94.3 ± 0.6%, the viability (in vitro; 0.05%, 72 h) was 73 ± 1.7% and the viability (in vitro; 0.1%, 24 h) was 82.2 ± 0.2%. It also gave a viability (in vitro; 0.1%, 72 h) of 60.3 ± 1.6%, a viability (in vitro; […], 24 h) of 100 ± 0.4% and a viability (in vitro; […], 72 h) of 104 ± 1.9%.

In the case of `Oc1ccccc1` [Phenol], the “cytotoxicity (in words)” value (LMH cells [1]) is given as “not cytotoxic”, the cytotoxicity (LMH cells [1]; chicken) is given as 85.5% and the “cell proliferation and cell survival” value [2] is given as 56%. The “concentration reducing the respiratory rate by 50%” value (laboratory mice) was 166 ppm.

With `CN(C)C` [Trimethylamine] the cytotoxicity (LMH cells [1]) was “above 95%”, the “Viability of LMH Cells (%) ± SD” value (LMH cells [1]; 0.004%, 24 h) was 95.5 ± 1.9% and the “Viability of LMH Cells (%) ± SD” value (LMH cells [1]; 0.004%, 48 h) was 92.5 ± 5.5%. The “Viability of LMH Cells (%) ± SD” value (LMH cells [1]; 0.008%, 24 h) was 100.1 ± 3.1%, the “Viability of LMH Cells (%) ± SD” value (LMH cells [1]; 0.008%, 48 h) was 84.9 ± 8.1% and the “Viability of LMH Cells (%) ± SD” value (LMH cells [1]; 0.016%, 24 h) was 103.6 ± 2.2%. The “Viability of LMH Cells (%) ± SD” value (LMH cells [1]; 0.016%, 48 h) was 72.8 ± 6.5 %, the “Viability of LMH Cells (%) ± SD” value (LMH cells [1]; 0.063%, 24 h) was 69.7 ± 5.9 % and the “Viability of LMH Cells (%) ± SD” value (LMH cells [1]; 0.063%, 48 h) was 2.8 ± 0.2 %. The “Viability of LMH Cells (%) ± SD” value (LMH cells [1]; 0.125%, 24 h) was 8.6 ± 0.5 %, the “Viability of LMH Cells (%) ± SD” value (LMH cells [1]; 0.125%, 48 h) was 5.4 ± 0.3 % and the “Viability of LMH Cells (%) ± SD” value (LMH cells [1]; 0.25%, 24 h) was 7.6 ± 0.3 %. The “Viability of LMH Cells (%) ± SD” value (LMH cells [1]; 0.25%, 48 h) was 4.1 ± 0.3 %, the “Viability of LMH Cells (%) ± SD” value (LMH cells [1]; 0.5%, 24 h) was 7.9 ± 0.2 % and the “Viability of LMH Cells (%) ± SD” value (LMH cells [1]; 0.5%, 48 h) was 3.8 ± 0.3 %. The “Viability of LMH Cells (%) ± SD” value (LMH cells [1]; 1.0%, 24 h) was 7.0 ± 0.1 %, the “Viability of LMH Cells (%) ± SD” value (LMH cells [1]; 1.0%, 48 h) was 2.5 ± 0.3 % and the “IC50 (%)” value (LMH cells [1]; 24 h exposure) was 0.08%. For the same compound, the “IC50 (%)” value (LMH cells [1]; 48 h exposure) was 0.04%, the “Viability of LMH Cells (%) ± SD” value (LMH cells [1]; […], 24 h) was 97.8 ± 1.8% and the “Viability of LMH Cells (%) ± SD” value (LMH cells [1]; […], 48 h) was 61.7 ± 8.9 %. The “Viability of LMH Cells (%) ±S.E.M.” value (LMH cells [3]; 0.004%) was 72.4 ± 5.4%, the “Viability of LMH Cells (%) ±S.E.M.” value (LMH cells [3]; 0.008%) was 54.3 ± 10.9% and the “Viability of LMH Cells (%) ±S.E.M.” value (LMH cells [3]; 0.016%) was 51.9 ± 2.9%. The “Viability of LMH Cells (%) ±S.E.M.” value (LMH cells [3]; 0.063%) was 36.6 ± 2.4%, the “Viability of LMH Cells (%) ±S.E.M.” value (LMH cells [3]; 0.125%) was 17.1 ± 2.3 % and the “Viability of LMH Cells (%) ±S.E.M.” value (LMH cells [3]; 0.25%) was 13.6 ± 2.3 %. The “Viability of LMH Cells (%) ±S.E.M.” value (LMH cells [3]; 0.5%) was 7.1 ± 0.4 %, the “Viability of LMH Cells (%) ±S.E.M.” value (LMH cells [3]; 1.0%) was 6.0 ± 0.3 % and the “IC50 (%)” value (LMH cells [3]; 24 h exposure, from dose-response curves) was 0.02%. The “Viability of LMH Cells (%) ±S.E.M.” value (LMH cells [3]; […]) was 38.9 ± 9.6%, the “toxic effects in workers” value (workers; concentrations of 20 mL/m^3) was “irritant to the mucous membranes and the eyes” and the “toxic effects in workers” value (workers; mean exposure concentrations of 5 mL/m^3 for 8 h) was “no toxic effects”. For the same compound, the RD50 (laboratory mice) was 61 mL/m^3.
